Measured values from PubChem BioAssay AID1259407 (Chemical Carcinogenesis Research Information System (CCRIS), 2018).
Calls of active or inactive are those of the source. The rule behind the calls is not given here.

System: CCRIS mutagenicity, Ames/micronucleus/aberration tests
Assay: CCRIS mutagenicity studies

For `Nc1snc2cc(Cl)ccc12`, the mutagenic call (Test System: AMES SALMONELLA TYPHIMURIUM, Strain/Indicator: TA98, Metabolic Activation: NONE, Method: STANDARD PLATE) was “inactive; negative”, the mutagenic call (Test System: AMES SALMONELLA TYPHIMURIUM, Strain/Indicator: TA98, Metabolic Activation: S-9, Method: STANDARD PLATE) was “inactive; negative” and the mutagenic call (Test System: AMES SALMONELLA TYPHIMURIUM, Strain/Indicator: TA100, Metabolic Activation: NONE, Method: STANDARD PLATE) was “inactive; negative”. The mutagenic call (Test System: AMES SALMONELLA TYPHIMURIUM, Strain/Indicator: TA100, Metabolic Activation: S-9, Method: STANDARD PLATE) was “active; positive”, the mutagenic call (Test System: AMES SALMONELLA TYPHIMURIUM, Strain/Indicator: TA1535, Metabolic Activation: NONE, Method: STANDARD PLATE) was “inactive; negative” and the mutagenic call (Test System: AMES SALMONELLA TYPHIMURIUM, Strain/Indicator: TA1535, Metabolic Activation: S-9, Method: STANDARD PLATE) was “inactive; negative”. For the same compound, the mutagenic call (Test System: AMES SALMONELLA TYPHIMURIUM, Strain/Indicator: TA1537, Metabolic Activation: NONE, Method: STANDARD PLATE) was “inactive; negative” and the mutagenic call (Test System: AMES SALMONELLA TYPHIMURIUM, Strain/Indicator: TA1537, Metabolic Activation: S-9, Method: STANDARD PLATE) was “active; positive”.

With `Cc1c2ccccc2c(CO)c2ccc3ccccc3c12` the mutagenic call (Test System: AMES SALMONELLA TYPHIMURIUM, Strain/Indicator: TA98, Metabolic Activation: HUMAN, LIVER, CYTOSOL, PAPS, Method: PREINCUBATION) was “active; positive”, the mutagenic call (Test System: AMES SALMONELLA TYPHIMURIUM, Strain/Indicator: TA100, Metabolic Activation: RAT, LIVER, PARENCHYMAL CELLS (CRYOPRESERVED), Method: PREINCUBATION) was “inactive; negative” and the mutagenic call (Test System: AMES SALMONELLA TYPHIMURIUM, Strain/Indicator: TA100, Metabolic Activation: RAT, LIVER, PARENCHYMAL CELLS (FRESHLY ISOLATED), Method: PREINCUBATION) was “active; positive”. For the same compound, the mutagenic call (Test System: AMES SALMONELLA TYPHIMURIUM, Strain/Indicator: TA100, Metabolic Activation: RAT, LIVER, S-9, AROCLOR 1254, Method: STANDARD PLATE) was “active; positive”, the mutagenic call (Test System: CHINESE HAMSTER V-79, Strain/Indicator: V-79/6-THIOGUANINE, Metabolic Activation: CELL-MEDIATED, Method: STANDARD PLATE) was “active; positive” and the mutagenic call (Test System: CHINESE HAMSTER V-79, Strain/Indicator: V-79/OUABAIN, Metabolic Activation: CELL-MEDIATED, Method: STANDARD PLATE) was “active; positive”.
